One experiment has as its target T1, Human recombinant MMP-2 (Homo sapiens, UniProt P08253).
T1 construct: made in house; host or cells: MMP-2-transfected p2AHT2 cells
T1 sequence (P08253 110-660): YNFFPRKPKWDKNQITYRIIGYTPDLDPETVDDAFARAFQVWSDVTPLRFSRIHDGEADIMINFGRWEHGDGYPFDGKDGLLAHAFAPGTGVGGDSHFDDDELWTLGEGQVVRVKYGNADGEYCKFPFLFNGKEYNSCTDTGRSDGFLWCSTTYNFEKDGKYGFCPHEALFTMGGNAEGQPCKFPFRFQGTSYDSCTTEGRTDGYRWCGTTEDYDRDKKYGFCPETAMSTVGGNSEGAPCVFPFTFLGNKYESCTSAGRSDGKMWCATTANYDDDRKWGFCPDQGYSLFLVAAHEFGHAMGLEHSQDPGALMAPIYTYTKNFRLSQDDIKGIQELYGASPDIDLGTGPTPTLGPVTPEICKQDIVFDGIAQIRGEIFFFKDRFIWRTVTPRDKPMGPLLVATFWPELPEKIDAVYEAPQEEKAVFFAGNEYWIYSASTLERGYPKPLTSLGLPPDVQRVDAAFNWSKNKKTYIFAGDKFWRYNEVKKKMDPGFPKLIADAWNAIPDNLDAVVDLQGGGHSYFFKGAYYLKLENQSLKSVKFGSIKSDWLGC
In words: In vitro MMP inhibition, IC50 determination (fluorogenic substrate I). Format: biochemical. The method, boiled down: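 APMA- or trypsin-activated recombinant MMP-2 was incubated at room temperature with serial inhibitor dilutions in Tris buffer pH 7.5 (100 mM NaCl, 10 mM CaCl2, 0.05% Brij), with DMSO from 1% stocks, and 4 μM substrate I. Cleavage was read by fluorescence at 328/415 nm; IC50 was taken from the loss of fluorescence versus inhibitor concentration.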

A further experiment has as its target T2, Human recombinant MMP-13 (Homo sapiens, UniProt P45452).
T2 construct: made in house; host or cells: baculovirus / insect cells
The description is as above. The format is biochemical. The essentials:
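Fluorescence at 415 nm (excitation 328 nm) reports Gly-Leu cleavage of 4 μM quenched methoxycoumarin peptide substrate I. Human recombinant MMP-13, activated by trypsin or APMA, was incubated at room temperature with varied inhibitor concentrations in pH 7.5 Tris/NaCl/CaCl2 buffer; IC50 derived from reduced fluorescence.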

The mark [1] stands for this setting: value outside parentheses (Ki in parenthesis).

The structures appear in SMILES notation.

As for `O=C(NO)C1(S(=O)(=O)c2ccc(OCCCc3ccc(-c4ccccc4)cc3)cc2)CCOCC1` [Example 270], the IC50 came out at 522 nM on Human recombinant MMP-2 (value outside parenthesis) and 8.1 nM on Human recombinant MMP-13 (value outside parenthesis).

For `CCCC(C)(C)C(=O)NCCCOc1ccc(S(=O)(=O)C2(C(=O)NO)CCOCC2)cc1` [Example 402], the IC50 came out at 454 nM at Human recombinant MMP-2 (setting [1]) and 30 nM on Human recombinant MMP-13 (setting [1]).

Regarding `COc1ccc(NC(=O)NCCCOc2ccc(S(=O)(=O)C3(C(=O)NO)CCOCC3)cc2)c(C)c1` [Example 498], the IC50 was found to be 160 nM at Human recombinant MMP-2 (value outside parentheses) and 14.8 nM at Human recombinant MMP-13 (value outside parentheses).

As for `COc1ccc(/C(C#N)=C/CCOc2ccc(S(=O)(=O)C3(C(=O)NO)CCOCC3)cc2)cc1` [Example 236], the IC50 on Human recombinant MMP-2 (value outside parenthesis) was found to be 7.6 nM; on Human recombinant MMP-13 (value outside parenthesis) it was 3.4 nM.

In the case of `COCCN1CCC(C(=O)NO)(S(=O)(=O)c2ccc(OCCCn3nc(C(F)(F)F)cc3-c3ccc(OC)cc3)cc2)CC1` [Example 198], the IC50 at Human recombinant MMP-2 (value outside parenthesis) stood at 4530 nM; at Human recombinant MMP-13 (value outside parenthesis), 835 nM.

As to `O=C(NO)C1(S(=O)(=O)c2ccc(OCCCc3nc(-c4cc(C(F)(F)F)cc(C(F)(F)F)c4)no3)cc2)CCOCC1` [Example 216], the IC50 at Human recombinant MMP-2 (value outside parenthesis) was found to be 1950 nM; on Human recombinant MMP-13 (value outside parenthesis), 51.2 nM.

As for `CN(CCCOc1ccc(S(=O)(=O)C2(C(=O)NO)CCN(C3CC3)CC2)cc1)C(=O)C1C2CC3CC(C2)CC1C3` (stereo not drawn) [Example 644], the figures for the IC50 at Human recombinant MMP-2 (value outside parentheses) and at Human recombinant MMP-13 (value outside parentheses) were 2630 nM and 20.9 nM, respectively.

On to `COCCN1CCC(C(=O)NO)(S(=O)(=O)c2ccc(OCCCn3cc(-c4cccc(OC)c4)cn3)cc2)CC1` [Example 235], for which the half-maximal inhibitory concentration (IC50) came to 422 nM on Human recombinant MMP-2 (value outside parenthesis) and 26 nM at Human recombinant MMP-13 (value outside parenthesis).

Take `O=C(NCCCOc1ccc(S(=O)(=O)C2(C(=O)NO)CCOCC2)cc1)c1ccc2ccccc2c1` [Example 366]: the results for the IC50 at Human recombinant MMP-2 (setting [1]) and on Human recombinant MMP-13 (setting [1]) were 347 nM and 0.3 nM, respectively.

For `O=C(NCCOc1ccc(S(=O)(=O)C2(C(=O)NO)CCOCC2)cc1)c1nc2ccccc2s1` [Example 589], the IC50 on Human recombinant MMP-2 (value outside parentheses) turned out to be 9.9 nM; at Human recombinant MMP-13 (value outside parentheses), 0.4 nM.

Consider `COc1ccc(SC[C@@H](C)COc2ccc(S(=O)(=O)C3(C(=O)NO)CCOCC3)cc2)cc1` [Example 432], for which the results for the concentration for half-maximal inhibition (IC50) at Human recombinant MMP-2 (setting [1]) and at Human recombinant MMP-13 (setting [1]) were 7 nM and 1.5 nM, respectively.

`COc1ccc(S(=O)(=O)CCCCOc2ccc(S(=O)(=O)C3(C(=O)NO)CCOCC3)cc2)cc1` [Example 428]: the results for the IC50 on Human recombinant MMP-2 (setting [1]) and at Human recombinant MMP-13 (setting [1]) were 20 nM and 1.4 nM, respectively.

Turning to `COc1ccc(C(C)(O)CCCCOc2ccc(S(=O)(=O)C3(C(=O)NO)CCOCC3)cc2)cc1` (stereo not drawn) [Example 347], the IC50 is 10.3 nM at Human recombinant MMP-2 (setting [1]) and 1.8 nM at Human recombinant MMP-13 (setting [1]).

For `COc1ccc2c(c1)CCCN2CCCCCOc1ccc(S(=O)(=O)C2(C(=O)NO)CCOCC2)cc1` [Example 416], the IC50 on Human recombinant MMP-2 (setting [1]) came to 17 nM; on Human recombinant MMP-13 (setting [1]), 8.6 nM.

Take `O=C(CCCOc1ccc(S(=O)(=O)C2(C(=O)NO)CCOCC2)cc1)Nc1cccc(-c2ccccc2)c1` [Example 571]: the figures for the IC50 at Human recombinant MMP-2 (value outside parentheses) and on Human recombinant MMP-13 (value outside parentheses) were 11.9 nM and 1.6 nM, respectively.

In the case of `O=C(NO)C1(S(=O)(=O)c2ccc(OCCc3cccc(N4CCCCC4)c3)cc2)CCOCC1` [Example 594], the results for the IC50 at Human recombinant MMP-2 (value outside parentheses) and at Human recombinant MMP-13 (value outside parentheses) were 140 nM and 3.8 nM, respectively.

For `COc1ccc(C(=O)C(C#N)CCOc2ccc(S(=O)(=O)C3(C(=O)NO)CCOCC3)cc2)cc1` (stereo not drawn) [Example 176], the figures for the IC50 at Human recombinant MMP-2 (value outside parenthesis) and on Human recombinant MMP-13 (value outside parenthesis) were 109 nM and 7.8 nM, respectively.

In the case of `COc1ccc(C(=O)N2CC[C@@H](Oc3ccc(S(=O)(=O)C4(C(=O)NO)CCOCC4)cc3)C2)cc1` [Example 422], the IC50 on Human recombinant MMP-2 (setting [1]) stood at 7200 nM; at Human recombinant MMP-13 (setting [1]), 1480 nM.

Take `O=C(NCCCOc1ccc(S(=O)(=O)C2(C(=O)NO)CCOCC2)cc1)c1ccccn1` [Example 382]: the half-inhibitory concentration (IC50) on Human recombinant MMP-2 (setting [1]) was determined as 59 nM; on Human recombinant MMP-13 (setting [1]), 1.7 nM.

`COc1ccc(C(=CCCCOc2ccc(S(=O)(=O)C3(C(=O)NO)CCOCC3)cc2)c2ccc(OC)cc2)cc1` [Example 349]: the IC50 on Human recombinant MMP-2 (setting [1]) was 505 nM; at Human recombinant MMP-13 (setting [1]) it was 39 nM.

For `O=C(NO)C1(S(=O)(=O)c2ccc(OCCCCCN3CCCc4ccccc43)cc2)CCOCC1` [Example 414], the results for the IC50 on Human recombinant MMP-2 (setting [1]) and on Human recombinant MMP-13 (setting [1]) were 37 nM and 14 nM, respectively.

The values above are taken from patent US20040024024A1, “Aromatic sulfone hydroxamates and their use as protease inhibitors” (priority 2001, published 2004).
